Reference: patent US8168596B2, “Use of cycloartane compounds for treating arthritis” (NuLiv Holding Inc., priority 2008, dated 2012)

Key:
HCH cells [1] = test: Glucosamine uptake assay; type: cell-based, human; details: astragalosides 0.1 μM, 24 h, Ctrl 1.00
Protocol: The HCHs were cultured as described above in Example 7. For the glucosamine uptake test, HCH cells were seeded into 24-well plate at a density of 3×10^4 cells per well and cultured for 24 hours. The cells were then treated in the absence (solvent control) or presence of the astragalosides (0.1 μM) or Astragalus membranaceous extracts (1.0 μg/mL) for another 24 hours. The treated cells were then washed twice with PBS and incubated in glucose and serum free medium (GSFM). After 2 hours, the cells were replaced with fresh GSFM containing 0.2 μCi of [^14C]-Glucosamine (American Radiolabelled Chemicals Inc, ARC, St. Louis, Mo., USA). At the designated time interval, the cells were washed twice with GSFM containing cold glucosamine and then lysed in 200 μL of 2% SDS. Cell lysates were centrifuged at 15000 g for 15 min. Intracellular uptaken glucosamine was determined by transferring 10 μL of the cell lysate to filter-bottomed UniFilter plates (Perkim-Elmer) and counting. The samples were measured for their protein concentration using the BCA protein assay kit as described above. The amount of glucosamine accumulated in the cells was calculated and normalized to protein concentration and uptake rate was expressed as counts per minute per microgram of cell protein (cpm/min/μg).

MMP-1 [2] = test: Western blot of MMP-1 in PMA- or IL-1β-pre-treated SW1353 cells (Example 6); type: cell-based, human; details: 48 h
Protocol: (§1) The cells were then plated on 6-cm dishes at a density of 1×10^6 cells/dish for 24 hours prior to any treatment. At the beginning of the experiment, the cells were pre-treated with 100 ng/mL PMA or 10 ng/mL IL-1β for 24 hours. The cells were then treated 0.1 μM Dexamethasone with, various astragaloside compounds (0.1 μM) or extracts of Astragalus membranaceous (1 μg/mL) at indicated dosages for another 48 hours. For control sample, 0.1% DMSO was used as a negative control for these experiments. The conditioned culture mediums were then centrifuged, 2-fold concentrated and collected for assay of collagens or MMPs secreted into the culture medium.
(§2) Western blotting analysis was carried out on both cultured medium and cell lysates, as follows. The cells were washed and lysed in 0.2 mL of lysis buffer (1% NP-40, 50 mM Tris-HCl, pH 7.4, 180 mM NaCl, 1 mM EDTA, 1 mM PMSF, 1 mM NaF, 10 mM Na3VO4) for 30 min at 4° C. After centrifuging at 17500 g for 15 min, the supernatants of cell lysate were also collected. Protein concentration of the samples were measured using the bicinchoninic acid (BCA) protein assay kit according to the manufacturer's protocol (Pierce, Rockford, Ill., USA). Equal amount of protein samples of concentrated conditioned medium (100 μg) or cell lysate supernatants (50 μg) were mixed with an appropriate volume of 4×SDS sampling buffer and separated by 8% SDS-PAGE gel. The protein bands separated in the SDS-PAGE gel were blotted onto a polyvinylidene fluoride (PVDF) membrane. The blotted PVDF membrane was washed twice and blocked in freshly prepared Tris-buffered saline (TBS) containing 0.1% Tween-20 and 7% skim milk (TBST) for 2 hours at room temperature. The PVDF membrane was then incubated with either antibodies against collagen I and III or the housekeeping protein α-tubulin (Santa Cruz Biotechnology, Santa Cruz, Calif.) for 18 hours at 4° C. Horseradish peroxidase-conjugated anti-goat antibody was used as secondary antibody. Signals were visualized by an enhanced chemiluminescence kit (Clonetech, Palo Alto, Calif., USA) followed by exposure to X-ray films.

HCH cells [3] = test: Proline uptake assay; type: cell-based, human; details: astragalosides 0.1 μM, 24 h, Ctrl 1.00
Protocol: The proline uptake assay was carried out as described below, generally in accordance with the method disclosed in Biochim Biophys Acta. 1104:283-292, 1992, the contents of which are incorporated by reference. Briefly, HCH cells were seeded into a 24-well plate at a density of 3×10^4 cells per well and cultured for 24 hours. The cells were then treated in the absence (solvent control) or presence of the astragalosides (0.1 μM) or Astragalus membranaceous extracts (1.0 μg/mL) for another 24 hours. The treated cells were then washed once with PBS and incubated in amino acid free medium (AAFM) for another 30 min. The treated cells were then replaced with fresh AAFM containing 50 μg/mL of ascorbate and total of 0.5 mM of L-proline containing 1 μCi [^3H] Proline (American Radiolabelled Chemicals Inc, ARC, St. Louis, Mo., USA). At designated time intervals, the cells were washed with AAFM containing cold proline and then lysed in 200 μL of 2% SDS. Cell lysates were centrifuged at 15000 g for 15 min. Intracellular proline uptaken by the cells was determined by transferring 10 μL of the cell lysate to filter-bottomed UniFilter plates (Perkim-Elmer) and counting. The samples were measured for their protein concentrations using the BCA protein assay kit as described above. The amount of proline accumulated in the cells was calculated and normalized to protein concentration. And cellular uptake rate was expressed as nmole of L-proline per minute per […] of cell protein (nmole/min/μg).

MMP-9 = test: Zymography of MMP-9 from pre-treated SW1353 cells; type: cell-based, human; details: PMA-pre-treated SW1353; 0.1 μM, 24 h
Protocol: (§3) At the beginning of the experiment, the cells were pre-treated with 100 ng/mL PMA or 10 ng/mL IL-1β for 24 hours. The cells were then treated with 0.1 μM Dexamethasone, various astragaloside compounds (0.1 μM) or extracts of Astragalus membranaceous (1 μg/mL) at indicated dosages for another 24 hours. For control sample, 0.1% DMSO was used as a negative control for these experiments. The conditioned culture mediums were then centrifuged, 2-fold concentrated and collected for assay of collagens or MMPs secreted into the culture medium.
(§4) The proteolytic activities of MMPs from SW1353 cells were measured essentially as described previously (Circ Res, 1999; 85:906-911). The cells were lysed in lysis buffer (1% Triton X-100, 50 mM Tris-Cl, pH 7.4, 180 mM NaCl, 1 mM EDTA). The samples were measured for their protein concentration using the bicinchoninic acid (BCA) protein assay kit as described. Samples of concentrated conditioned medium and cell lysates were mixed with non-reducing electrophoresis loading buffer and subjected to electrophoresis under non-reducing conditions. The electrophoresis was carried out on a 10% SDS-PAGE co-polymerized with 2 mg/mL gelatin or casein (Sigma, St. Louis, Mo. USA). For zymographic analysis of pro-MMP-2 and activated MMP-2, the total 20 μg of culture medium were used for electrophoresis. Following electrophoresis, renaturation of the proteins was achieved by incubating the gels twice in 25 g/L Triton X-100 at room temperature for 10 min. Subsequently the gels were incubated in 50 mM Tris-HCl, pH 7.5 containing 0.2 M NaCl, 0.02% Brij35 and 10 mM CaCl2 at 37° C. for 18 hours. After the gels were stained with Coomassie Brilliant Blue R-250 and destained, zones of proteolytic activities became visible as transparent bands in the stained gel. In order to obtain higher sensitivity, the gels were further destained in a solution of 1% Triton X-100 (1 to 2 hours). This procedure increased the signal-to-noise ratio, allowing the visualization of faint gelatinase bands at 92 kDa, 125 kDa and greater than 200 kDa. Zymograms were read using a Molecular Dynamics (Sunnyvale, Calif., USA) computing laser densitometer with Image Quant software.

MMP-1 [4] = test: Zymography of MMP-1 from pre-treated SW1353 cells; type: cell-based, human; details: PMA-pre-treated SW1353; 0.1 μM, 24 h
Protocol: as §3, §4

MMP-2 = test: Zymography of MMP-2 from pre-treated SW1353 cells; type: cell-based, human; details: PMA-pre-treated SW1353; 0.1 μM, 24 h
Protocol: as §3, §4

MMP-13 [5] = test: Western blot of MMP-13 in PMA- or IL-1β-pre-treated SW1353 cells (Example 6); type: cell-based, human; details: 0.1 μM, 48 h
Protocol: as §1
as §2, with “The PVDF membrane was then incubated with either antibodies against collagen I and III or the housekeeping protein α-tubulin (Santa Cruz Biotechnology, Santa Cruz, Calif.) for 18 hours at 4° C.” left out

MMP1 = details: UO126 10 μM, SP600125 25 μM, SB203580 5 μM, 24 h, then PMA 100 ng/mL 24 h
Protocol: The SW1353 cells were grown at 37° C. in a humidified incubator under 5% CO2 and 95% air in the culture medium as described above. The SW1353 cells were then sub-cultured into 6-well culture plates with serum free medium at an average amount of 2×10^5 cells per well and incubated for 24 hours. Then, the SW1353 cells were treated with 10 μM UO126 (MEK1-specific inhibitor), 25 μM, SP600125 (JNK-specific inhibitor), 5 μM SB203580 (p38-specific inhibitor), or 20 μM LY294002 (PI3K kinase inhibitor), and incubated for another 24 hours. Later, the SW1353 cells were treated with 100 ng/mL PMA and again incubated for 24 hours. Finally, the SW1353 cells were under cell extraction and the cell lysate was used for further luciferase analysis and western blotting analysis.
The SW1353 cells were grown at 37° C. in a humidified incubator under 5% CO2 and 95% air in the culture medium as described above. The SW1353 cells were then sub-cultured into 24-well culture plates and cultured for 24 hours. […] Following cell extraction, the cell lysate was centrifuged at 4° C., 20000 g for 30 minutes and then transferred to a 1.5 ml-microcentrifuge tube. Then, 100 μl buffer A (0.1 mM luciferin) and 350 μl buffer B (1 M MgSO4, 1 M Hepes (pH 7.8), 0.1 M ATP) were added into the microcentrifuge tube. The luciferase activity of final mixture was measured by a luminometer for 30 seconds.

Type II Collagen = test: Western blot of Type II Collagen in pre-treated human chondrocytes (HCHs); type: cell-based; details: PMA-pre-treated HCH culture medium; 0.1 μM, 48 h
MMP-1 [6] = test: Western blot of MMP-1 in pre-treated human chondrocytes (HCHs); type: cell-based; details: 0.1 μM, 48 h
MMP-13 [7] = test: Western blot of MMP-13 in pre-treated human chondrocytes (HCHs); type: cell-based; details: 0.1 μM, 48 h
[8] = PMA-pre-treated SW1353 cell extract, 0.1 μM
[9] = PMA-pre-treated SW1353 culture medium, 0.1 μM
[10] = PMA-pre-treated SW1353 cell extract
[11] = PMA-pre-treated SW1353 culture medium
[12] = PMA-pre-treated HCH cell extract
[13] = PMA-pre-treated HCH culture medium

CC(=O)O[C@H]1[C@H](O[C@H]2CC[C@]34C[C@]35CC[C@]3(C)[C@@H]([C@@]6(C)CC[C@@H](C(C)(C)O)O6)[C@@H](O)C[C@@]3(C)[C@@H]5C[C@H](O[C@@H]3O[C@H](CO)[C@@H](O)[C@H](O)[C@H]3O)[C@H]4C2(C)C)OC[C@@H](OC(C)=O)[C@@H]1O [IsoAS1, Isoastragaloside I]
glucosamine uptake, Relative fold (HCH cells [1]): 1.16 fold
MMP-1, Western blot, relative to Ctrl 1.00 (MMP-1 [2]; [8]): 0.67
MMP-1, Western blot, relative to Ctrl 1.00 (MMP-1 [2]; [9]): 0.77
proline uptake, Relative fold (HCH cells [3]): 2.82 fold
MMP-9, Zymography, relative to Ctrl 1.00 (MMP-9): 0.85
MMP-1, Zymography, relative to Ctrl 1.00 (MMP-1 [4]): 0.66
MMP-2, Zymography, relative to Ctrl 1.00 (MMP-2): 1.01
MMP-13, Western blot, relative to Ctrl 1.00 (MMP-13 [5]; [10]): 1.19
MMP-13, Western blot, relative to Ctrl 1.00 (MMP-13 [5]; [11]): 1.03

C[S+]([O-])c1ccc(-c2nc(-c3ccncc3)c(-c3ccc(F)cc3)[nH]2)cc1 (stereo not shown) [SB203580]
luciferase activity (control group 1 fold, PMA-only group 8 fold) (MMP1): 2 fold

CC(=O)O[C@@H]1[C@@H](O)[C@H](O[C@H]2CC[C@]34C[C@]35CC[C@]3(C)[C@@H]([C@@]6(C)CC[C@@H](C(C)(C)O)O6)[C@@H](O)C[C@@]3(C)[C@@H]5C[C@H](O[C@@H]3O[C@H](CO)[C@@H](O)[C@H](O)[C@H]3O)[C@H]4C2(C)C)OC[C@H]1O [IsoAS2, Isoastragaloside II]
glucosamine uptake, Relative fold (HCH cells [1]): 1.07 fold
MMP-1, Western blot, relative to Ctrl 1.00 (MMP-1 [2]; [8]): 1.28
MMP-1, Western blot, relative to Ctrl 1.00 (MMP-1 [2]; [9]): 0.77
proline uptake, Relative fold (HCH cells [3]): 1.61 fold
MMP-9, Zymography, relative to Ctrl 1.00 (MMP-9): 0.95
MMP-1, Zymography, relative to Ctrl 1.00 (MMP-1 [4]): 0.95
MMP-2, Zymography, relative to Ctrl 1.00 (MMP-2): 1.04
MMP-13, Western blot, relative to Ctrl 1.00 (MMP-13 [5]; [10]): 0.60
MMP-13, Western blot, relative to Ctrl 1.00 (MMP-13 [5]; [11]): 0.80

CC(C)(O)C1CC[C@](C)(C2[C@@H](O)C[C@@]3(C)C4C[C@H](OC5OC(CO)C(O)C(O)C5O)C5C(C)(C)[C@@H](O)CCC56CC46CC[C@]23C)O1 (stereo partly drawn) [AA, cycloastragenol 6-O-β-D-glucopyranose]
glucosamine uptake, Relative fold (HCH cells [1]): 1.19 fold
MMP-1, Western blot, relative to Ctrl 1.00 (MMP-1 [2]; IL-1β-pre-treated SW1353 cell extract, compounds 0.1 μM): 0.74
MMP-1, Western blot, relative to Ctrl 1.00 (MMP-1 [2]; IL-1β-pre-treated SW1353 culture medium, 0.1 μM): 0.76
MMP-1, Western blot, relative to Ctrl 1.00 (MMP-1 [2]; [9]): 0.52
proline uptake, Relative fold (HCH cells [3]): 2.80 fold
Type II Collagen, Western blot, relative to Ctrl 1.00 (Type II Collagen): 1.42
MMP-1, Western blot, relative to Ctrl 1.00 (MMP-1 [6]; [12]): 0.44
MMP-1, Western blot, relative to Ctrl 1.00 (MMP-1 [6]; [13]): 0.44
MMP-13, Western blot, relative to Ctrl 1.00 (MMP-13 [7]; [12]): 0.44
MMP-13, Western blot, relative to Ctrl 1.00 (MMP-13 [7]; [13]): 0.49
MMP-13, Western blot, relative to Ctrl 1.00 (MMP-13 [5]; IL-1β-pre-treated SW1353 culture medium): 0.93
MMP-13, Western blot, relative to Ctrl 1.00 (MMP-13 [5]; [11]): 0.84
